# Data taken from patent US8652776B2, “Prediction of QT prolongation based on SNP genotype” (Vanda Pharmaceuticals, Inc., priority 2007, dated 2014).
# What was measured:
# [1] = system: patients with schizophrenia; test: Change in QTcF from baseline to Day 14 by SNP genotype, phase 3 clinical trial of iloperidone (WGAS); type: in vivo, human; settings: iloperidone 12 mg bid
# Method: To identify new genetic markers of drug-induced QT prolongation, a whole genome association study (WGAS) was conducted as part of a phase 3 clinical trial of iloperidone. The clinical trial was a randomized, double-blind, placebo-, and ziprasidone-controlled multicenter study evaluating the efficacy, safety, and tolerability of a 24 mg/day dose of iloperidone administered twice a day (bid) for 28 days to patients with schizophrenia in acute exacerbation.
# Therefore, the change in QT interval was calculated between baseline and Day 14. The Fridericia correction (QTcF) was applied, and a generalized linear model (GLM) statistical analysis using baseline as a covariate was performed. […] Analysis was focused on those SNPs located within or close to genes (<10 kb away) in which the minor genotype group included at least 10% of the patients. Six SNPs of interest were identified in the CERKL, SLCO3A1, BRUNOL4, NRG3, NUBPL, and PALLD genes (Table 1). The possibility that changes in the QT interval reflect drug concentration differences could not be excluded because drug exposure at the time of electrocardiography (ECG) was not known. However, the six SNPs identified here are within genes not expected to play roles in drug absorption, metabolism, or excretion. For these SNPs, genotype calls generated by the microarray set were confirmed by sequencing on a random subset of DNA samples of iloperidone-treated patients. The association of a particular genotype class with lower or higher increased QT was consistent between men and women and across races. Additional SNPs with statistical association at P<0.001 were observed within or near the CERKL, SLCO3A1, NRG3, NUBPL, and PALLD genes (FIGS. 1a-f).
# Patients 18 to 65 years of age with diagnoses of schizophrenia according to the Diagnostic and Statistical Manual of Mental Disorders, 4th Edition (disorganized [295.10], paranoid [295.30], or undifferentiated [295.90]) were eligible to participate in the trial. Patients were randomly assigned to iloperidone 12 mg twice a day (bid), ziprasidone 80 mg bid (active control), or placebo. Doses were titrated to their respective target doses from Days 1 to 7 and were maintained until Day 28. Participation in the pharmacogenomic analysis was optional. Blood samples were collected, and DNA was extracted (Quest Diagnostics Laboratories, Van Nuys, Calif.) from 432 of 457 patients who consented to the optional WGAS, including 218 patients administered iloperidone. Of these iloperidone-treated patients, 183 (152 men and 31 women) with QT data at Day 14 were part of the WGAS reported here. They included 16 Asian, 69 white, and 91 black or African American patients and 7 patients of other ethnic origins.
# Twelve-lead ECG was performed at baseline and on Days 7, 14, 21, and 28. Except at baseline, ECG was performed 2 hours after patients had received the morning dose of study drug. ECG was performed 3 times at baseline and on Day 14, with single measurements obtained for other visits. QTc interval was calculated based on QTcF. The effect of iloperidone on QTc interval was measured by the mean change from baseline in Qtc.
# Genetic markers associated with prolongation of QTcF were identified through GLM analysis. The dependent variable was mean change from baseline to Day 14 because the effects on QT were greatest by Day 14, when iloperidone achieves steady state concentration. Baseline QTcF was used as a covariate, and genotype was used as the classifiable variable. The GLM used type 3 sums of squares, with all pairwise differences produced among the least squares means. Because 3 genetic models (AA vs non-AA; AB vs non-AB; BB vs non-BB) were tested for each of the 334,563 SNPs, a total of 1,003,689 tests were performed. The Benjamini and Hochberg (BH) procedure was used to control for the expected proportion of FDR. FDR corrections were obtained from PROC MULTTEST (SAS Institute, Cary, N.C.), which produces BH adjustments to original analytical P values. […]
# [2] = system: patients treated with iloperidone; test: Occurrence of torsades de pointes in patients treated with iloperidone; type: in vivo, human; settings: any patient treated with iloperidone, to date
compound,measurement,setting,value
"COc1cc(C(C)=O)ccc1OCCCN1CCC(c2noc3cc(F)ccc23)CC1 [Iloperidone, 1-[4-[3-[4-(6-fluoro-1,2-benzisoxazol-3-yl)-1-piperidinyl]propoxy]-3-methoxyphenyl]ethanone]",mean change in QT (QTcF) from baseline to Day 14,"[1]; rs993648 (CERKL) genotype CC, N=50",17.02 ms
same,mean change in QT (QTcF) from baseline to Day 14,"[1]; rs993648 (CERKL) genotype CT (heterozygous), N=80",4.50 ms
same,mean change in QT (QTcF) from baseline to Day 14,"[1]; rs993648 (CERKL) genotype CT (heterozygous), N=80, listed as iloperidone",4.5 ms
same,mean change in QT (QTcF) from baseline to Day 14,"[1]; rs993648 (CERKL) genotype Non-CT (homozygous), N=94",17.81 ms
same,mean change in QT (QTcF) from baseline to Day 14,"[1]; rs993648 (CERKL) genotype Non-CT (homozygous), N=94, listed as iloperidone",17.8 ms
same,mean change in QT (QTcF) from baseline to Day 14,"[1]; rs993648 (CERKL) genotype TT, N=44",18.72 ms
same,mean change in QT (QTcF) from baseline to Day 14,"[1]; rs3924426 (SLCO3A1) genotype CC, N=5",-7.00 ms
same,mean change in QT (QTcF) from baseline to Day 14,"[1]; rs3924426 (SLCO3A1) genotype CT, N=43",3.64 ms
same,mean change in QT (QTcF) from baseline to Day 14,"[1]; rs3924426 (SLCO3A1) genotype Non-TT, N=48",2.53 ms
same,mean change in QT (QTcF) from baseline to Day 14,"[1]; rs3924426 (SLCO3A1) genotype Non-TT, N=48, listed as iloperidone",2.5 ms
same,mean change in QT (QTcF) from baseline to Day 14,"[1]; rs3924426 (SLCO3A1) genotype TT, N=135",14.99 ms
same,mean change in QT (QTcF) from baseline to Day 14,"[1]; rs3924426 (SLCO3A1) genotype TT, N=135, listed as iloperidone",15.0 ms
same,mean change in QT (QTcF) from baseline to Day 14,"[1]; rs4799915 (BRUNOL4) genotype CC, N=48",2.88 ms
same,mean change in QT (QTcF) from baseline to Day 14,"[1]; rs4799915 (BRUNOL4) genotype CC, N=48, listed as iloperidone",2.9 ms
same,mean change in QT (QTcF) from baseline to Day 14,"[1]; rs4799915 (BRUNOL4) genotype CT, N=78",13.52 ms
same,mean change in QT (QTcF) from baseline to Day 14,"[1]; rs4799915 (BRUNOL4) genotype Non-CC, N=132",14.46 ms
same,mean change in QT (QTcF) from baseline to Day 14,"[1]; rs4799915 (BRUNOL4) genotype Non-CC, N=132, listed as iloperidone",14.5 ms
same,mean change in QT (QTcF) from baseline to Day 14,"[1]; rs4799915 (BRUNOL4) genotype TT, N=54",15.81 ms
same,mean change in QT (QTcF) from baseline to Day 14,"[1]; rs4933824 (NRG3) genotype GG, N=124",15.33 ms
same,mean change in QT (QTcF) from baseline to Day 14,"[1]; rs4933824 (NRG3) genotype GG, N=124, listed as iloperidone",15.3 ms
same,mean change in QT (QTcF) from baseline to Day 14,"[1]; rs4933824 (NRG3) genotype GT, N=47",4.62 ms
same,mean change in QT (QTcF) from baseline to Day 14,"[1]; rs4933824 (NRG3) genotype Non-GG, N=57",4.41 ms
same,mean change in QT (QTcF) from baseline to Day 14,"[1]; rs4933824 (NRG3) genotype Non-GG, N=57, listed as iloperidone",4.4 ms
same,mean change in QT (QTcF) from baseline to Day 14,"[1]; rs4933824 (NRG3) genotype TT, N=10",3.41 ms
same,mean change in QT (QTcF) from baseline to Day 14,"[1]; rs7142881 (NUBPL) genotype AA, N=28",17.65 ms
same,mean change in QT (QTcF) from baseline to Day 14,"[1]; rs7142881 (NUBPL) genotype AG, N=71",16.35 ms
same,mean change in QT (QTcF) from baseline to Day 14,"[1]; rs7142881 (NUBPL) genotype GG, N=79",5.67 ms
same,mean change in QT (QTcF) from baseline to Day 14,"[1]; rs7142881 (NUBPL) genotype GG, N=79, listed as iloperidone",5.7 ms
same,mean change in QT (QTcF) from baseline to Day 14,"[1]; rs7142881 (NUBPL) genotype Non-GG, N=99",16.71 ms
same,mean change in QT (QTcF) from baseline to Day 14,"[1]; rs7142881 (NUBPL) genotype Non-GG, N=99, listed as iloperidone",16.7 ms
same,mean change in QT (QTcF) from baseline to Day 14,"[1]; rs17054392 (PALLD) genotype CC, N=2",17.33 ms
same,mean change in QT (QTcF) from baseline to Day 14,"[1]; rs17054392 (PALLD) genotype CT (heterozygous), N=30",-0.69 ms
same,mean change in QT (QTcF) from baseline to Day 14,"[1]; rs17054392 (PALLD) genotype CT (heterozygous), N=30, listed as iloperidone",-0.7 ms
same,mean change in QT (QTcF) from baseline to Day 14,"[1]; rs17054392 (PALLD) genotype Non-CT, N=153",14.16 ms
same,mean change in QT (QTcF) from baseline to Day 14,"[1]; rs17054392 (PALLD) genotype Non-CT, N=153, listed as iloperidone",14.2 ms
same,mean change in QT (QTcF) from baseline to Day 14,"[1]; rs17054392 (PALLD) genotype TT, N=151",14.12 ms
same,torsades de pointes in treated patients,[2],no evidence to date indicates that any patient treated with iloperidone has experienced torsades de pointes
